Molecular target: T1, PI3K-alpha enzyme (Homo sapiens, UniProt P42336)
T1 construct: purchased Millipore 14-602
Assay: PI3-Kinase (human) HTRF Assay kit, PI3K alpha enzyme IC50 determination
Assay type: biochemical
Conditions: ATP 10 μM, PIP2 10 μM, 1% DMSO, double holes for each concentration, read-out: the half inhibitory concentrations (IC50) of the tested compounds on PI3K-alpha
Description: Prepare fresh before each use. […] 1 μL of each was added to 24 μL 1× Reaction Buffer. 5 μL of each diluted solution was added into a 384-well plate and contained 1% DMSO. […] This working solution should be prepared with 0.1-0.2 ml more to meet the control usage and dead volume. […] In a 20 μL kinase reaction system, the concentration of ATP was 10 μM. For example, to prepare 2 ml ATP working solution, take 8 μL 10 mM ATP and add it to 1992 μL 1× reaction buffer.

T1 sequence (P42336 whole entry): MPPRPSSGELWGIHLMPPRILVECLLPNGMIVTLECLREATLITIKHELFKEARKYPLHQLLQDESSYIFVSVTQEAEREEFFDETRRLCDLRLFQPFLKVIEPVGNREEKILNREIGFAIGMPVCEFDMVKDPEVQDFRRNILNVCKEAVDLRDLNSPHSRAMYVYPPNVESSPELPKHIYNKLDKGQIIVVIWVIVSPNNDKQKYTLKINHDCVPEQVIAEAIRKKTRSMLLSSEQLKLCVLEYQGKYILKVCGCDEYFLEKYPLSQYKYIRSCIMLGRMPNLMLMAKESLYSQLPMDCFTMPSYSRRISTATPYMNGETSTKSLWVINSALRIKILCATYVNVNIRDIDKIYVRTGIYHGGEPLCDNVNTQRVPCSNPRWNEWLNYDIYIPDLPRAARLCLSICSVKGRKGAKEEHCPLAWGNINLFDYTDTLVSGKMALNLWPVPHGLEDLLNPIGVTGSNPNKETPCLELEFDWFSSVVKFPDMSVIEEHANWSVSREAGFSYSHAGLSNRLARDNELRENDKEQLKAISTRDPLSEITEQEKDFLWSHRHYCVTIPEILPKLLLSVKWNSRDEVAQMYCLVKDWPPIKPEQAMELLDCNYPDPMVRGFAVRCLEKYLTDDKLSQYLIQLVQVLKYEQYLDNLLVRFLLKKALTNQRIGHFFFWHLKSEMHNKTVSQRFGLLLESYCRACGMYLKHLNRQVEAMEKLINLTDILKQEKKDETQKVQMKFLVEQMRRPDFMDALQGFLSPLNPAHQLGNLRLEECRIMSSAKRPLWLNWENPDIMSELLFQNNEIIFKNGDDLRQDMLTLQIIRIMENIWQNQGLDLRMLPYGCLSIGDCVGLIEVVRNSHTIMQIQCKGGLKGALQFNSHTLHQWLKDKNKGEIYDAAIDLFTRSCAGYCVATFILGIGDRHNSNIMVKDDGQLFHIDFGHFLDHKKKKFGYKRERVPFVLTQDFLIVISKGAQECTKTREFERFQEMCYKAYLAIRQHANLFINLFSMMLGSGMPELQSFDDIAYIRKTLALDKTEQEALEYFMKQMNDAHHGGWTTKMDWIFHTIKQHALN
T1 sequence (P27986 whole entry partner): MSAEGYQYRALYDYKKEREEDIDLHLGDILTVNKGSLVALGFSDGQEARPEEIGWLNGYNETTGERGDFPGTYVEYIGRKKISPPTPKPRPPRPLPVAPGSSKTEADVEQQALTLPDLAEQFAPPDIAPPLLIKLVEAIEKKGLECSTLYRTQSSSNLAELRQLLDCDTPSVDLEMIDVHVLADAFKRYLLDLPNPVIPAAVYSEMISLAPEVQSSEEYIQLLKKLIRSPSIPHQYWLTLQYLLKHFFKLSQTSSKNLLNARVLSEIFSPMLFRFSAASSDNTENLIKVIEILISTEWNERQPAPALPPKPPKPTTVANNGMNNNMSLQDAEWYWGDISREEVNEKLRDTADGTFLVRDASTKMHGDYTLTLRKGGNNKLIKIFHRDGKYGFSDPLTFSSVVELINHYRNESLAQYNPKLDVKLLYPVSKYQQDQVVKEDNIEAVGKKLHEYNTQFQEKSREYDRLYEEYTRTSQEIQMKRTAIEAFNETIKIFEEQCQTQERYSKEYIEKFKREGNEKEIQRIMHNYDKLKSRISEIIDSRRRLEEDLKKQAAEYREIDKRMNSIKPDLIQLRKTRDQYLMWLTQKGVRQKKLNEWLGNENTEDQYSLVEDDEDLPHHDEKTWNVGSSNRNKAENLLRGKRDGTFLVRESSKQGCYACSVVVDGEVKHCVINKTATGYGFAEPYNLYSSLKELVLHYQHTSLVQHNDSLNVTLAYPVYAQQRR

Row | SMILES | IC50 [nM]
1 | O=C(Nc1ccc(CO)cc1)Nc1ccc(-c2nc(N3CCOCC3)c3[nH]cnc3n2)cc1 [RMP-D06, 1-(4-(hydroxymethyl)phenyl)-3-(4-(6-morpholino-7H-purin-2-yl)phenyl)urea] | 22.6
2 | O=C(Nc1ccc(-c2nc(N3CCOCC3)c3[nH]cnc3n2)cc1)Nc1ccc(CO)c(C(F)(F)F)c1 [RMP-D07, 1-(4-(hydroxymethyl)-3-(trifluoromethyl)phenyl)-3-(4-(6-morpholino-7H-purin-2-yl)phenyl)urea] | 215
3 | O=C(Nc1ccc(COCCN2CCOCC2)cc1)Nc1ccc(-c2nc(N3CCOCC3)c3[nH]cnc3n2)cc1 [RMP-D08, 1-(4-(6-morpholino-7H-purin-2-yl)phenyl)-3-(4-((2-morpholinoethoxy)methyl)phenyl)urea] | 46.1

— patent US12617792B2, “Purine derivative, intermediate and application thereof in preparing anticancer medicine” (SUZHOU RAYMON PHARMACEUTICALS COMPANY, LTD., priority 2019, dated 2026)
